From patent US6506751B1, “Thiazolidinone compounds useful as chemokine inhibitors” (Millennium Pharmaceuticals, Inc., priority 1999, dated 2003)

Assays:
CCR-5 receptor = molecular target: T1, CCR-5 receptor (Homo sapiens, UniProt P51681); assay: 125I-gp120/sCD4/CCR-5 binding assay (CCR-5 receptor binding assay); details: for IC50: block of 125I-gp120 (HIV-1 JR-FL)/sCD4 binding to membranes from CCR-5/L 1.2 cells; for inhibition at 10 µM / % Inhib. @ 10 μM: 10 μM compound, 125I-gp120/sCD4 binding to membranes from CCR-5/L 1.2 cells; for inhibition at 10 µM: read-out: % Inhib. @ 10 μM
T1 construct: membranes prepared from CCR-5/L 1.2 cells; expressed in transfected cells; host or cells: L1.2 cells (CCR-5/L 1.2), membrane preparation
Description: The ^125I-gp120/sCD4/CCR-5 binding assay is carried out similarly as described in Wu et al., Nature, 1996;384:179-183. Briefly, the envelope gp120 protein derived from HIV-1 JR-FL (Trkola et al., Nature, 1996;384:184-186), a M-tropic strain, is iodinated using solid phase lactoperoxidase to a specific activity of 20 μCi/μg. For each binding reaction (in a final volume of 100 μL binding buffer [50 mM HEPES, pH 7.5, 1 mM CaCl2, 5 mM MgCl2, and 0.5% BSA]), 25 μL (2.5 μg) of membranes prepared from CCR-5/L 1.2 cells are mixed with 25 μL (3 nM) sCD4, followed by 25 μL (0.1 nM) radiolabeled gp120 in the presence or absence of 25 μL compound dissolved in DMSO (final concentration of DMSO 0.5%). The reactions are incubated at room temperature for 45 to 60 minutes and stopped by transferring the mixture to GFB filter plates, which are then washed 3 to 4 times with binding buffer containing 0.5 M NaCl. The plates are dried and MicroScint scintillation fluid is added before counting.

T1 sequence (P51681 whole entry): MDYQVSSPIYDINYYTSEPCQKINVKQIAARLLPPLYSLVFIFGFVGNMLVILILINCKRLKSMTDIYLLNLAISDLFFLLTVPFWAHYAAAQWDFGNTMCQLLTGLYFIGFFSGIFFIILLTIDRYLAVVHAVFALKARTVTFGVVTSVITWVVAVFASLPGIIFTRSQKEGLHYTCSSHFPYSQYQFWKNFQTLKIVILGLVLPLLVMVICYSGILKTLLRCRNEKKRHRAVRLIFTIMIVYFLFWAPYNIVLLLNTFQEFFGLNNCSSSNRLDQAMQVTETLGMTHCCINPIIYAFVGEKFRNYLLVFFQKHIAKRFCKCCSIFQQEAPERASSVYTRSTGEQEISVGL

Compound | IC50 (CCR-5 receptor) [nM] | melting point [°C] | inhibition at 10 µM (CCR-5 receptor) [%] | % Inhib. @ 10 μM (CCR-5 receptor) [%]
O=C1/C(=C\c2cccc(F)c2)SC(c2cccc(F)c2)N1CCCN1CCOCC1 (centres unmarked) [Compound 1, 5-(3-Fluorobenzylidene)-2-(3-fluorophenyl)-3-(3-morpholin-4-ylpropyl)-thiazolidin-4-one] | 10800 | 149 to 150 | – | –
O=C1/C(=C\c2cccc(Cl)c2)SC(c2cccc(Cl)c2)N1CCCN1CCCCC1 (centres unmarked) [Compound 2, 5-(3-Chlorobenzylidene)-2-(3-chlorophenyl)-3-(3-piperidin-1-yl-propyl)-thiazolidin-4-one] | 250 | 137 to 139 | – | –
O=C1/C(=C\c2cccc(F)c2)SC(c2cccc(F)c2)N1CCCN1CCC(N2CCCCC2)CC1 (centres unmarked) [Compound 6, 3-(3-[1,4′]Bipiperidinyl-1′-yl-propyl)-5-(3-fluorobenzylidene)-2-(3-fluorophenyl)-thiazolidin-4-one] | 1260 | 160 to 162 | – | –
O=C1/C(=C\C2CCCCC2)SC(c2cccc(Cl)c2)N1CCCN1CCCCC1 (centres unmarked) [Compound 14, 2-(3-Chlorophenyl)-5-cyclohexylmethylene-3-(3-piperidin-1-yl-propyl)-thiazolidin-4-one] | 460 | 90 to 91 | – | –
CCN(CC)CCSCCCN1C(=O)/C(=C\c2cccc(F)c2)SC1c1cccc(Cl)c1 (centres unmarked) [Compound 15, 2-(3-Chlorophenyl)-3-[3-(2-diethylaminoethylsulfanyl)propyl]-5-(3-fluorobenzylidene)-thiazolidin-4-one] | 12700 | 41 to 43 | – | –
O=C1CSC(c2cccc(Cl)c2)N1C1CCN(Cc2ccccc2)CC1 (centres unmarked) [Compound 16, 3-(1-Benzylpiperidin-4-yl)-2-(3-chlorophenyl)-thiazolidin-4-one] | 3810 | 140 to 141 | – | –
O=C1/C(=C\c2cccc(F)c2)SC(c2cccc(Cl)c2)N1C1CCN(Cc2ccccc2)CC1 (centres unmarked) [Compound 19, 3-(1-Benzylpiperidin-4-yl)-2-(3-chlorophenyl)-5-(3-fluorobenzylidene)-thiazolidin-4-one] | 280 | 121 to 123 | – | –

Other lines, results leading:

IC50 (CCR-5 receptor) [nM] | melting point [°C] | inhibition at 10 µM (CCR-5 receptor) [%] | % Inhib. @ 10 μM (CCR-5 receptor) [%] | Compound
170 | 156 to 158 | – | – | O=C1/C(=C\c2ccco2)SC(c2cccc(Cl)c2)N1CCCN1CCCCC1 (centres unmarked) [Compound 20, 2-(3-Chlorophenyl)-5-(furan-2-ylmethylene)-3-(3-piperidin-1-yl-propyl)-thiazolidin-4-one]
1990 | 142 to 143 | – | – | O=C1/C(=C\c2cccc(F)c2)SC(c2cccc(Cl)c2)N1CCCN1CCOCC1 (centres unmarked) [Compound 23, 2-(3-Chlorophenyl)-5-(3-fluorobenzylidene)-3-(3-morpholin-4-yl-propyl)-thiazolidin-4-one]
– | – | 57.7 | – | O=C1C(=Cc2cccc(Cl)c2)SC(c2cccc(C(F)(F)F)c2)N1CCCN1CCN(c2ncccn2)CC1 (centres unmarked) [Compound 45, 5-(3-Chloro-benzylidene)-3-[3-(4-pyrimidin-2-yl-piperazin-1-yl)-propyl]-2-(3-trifluoromethyl-phenyl)-thiazolidin-4-one]
– | – | – | 51.1 | O=C1C(=Cc2cccc(Cl)c2)SC(c2cccc(C(F)(F)F)c2)N1CCCN1CCN(C2CCCCC2)CC1 (centres unmarked) [Compound 46, 5-(3-Chloro-benzylidene)-3-[3-(4-cyclohexyl-piperazin-1-yl)-propyl]-2-(3-rifluoromethyl-phenyl)-thiazolidin-4-one]
– | – | – | 75.6 | O=C1C(=Cc2cccc(Cl)c2)SC(c2cccc(F)c2)N1CCCN1CCN(c2ccccn2)CC1 (centres unmarked) [Compound 47, 5-(3-Chloro-benzylidene)-2-(3-fluoro-phenyl)-3-[3-(4-pyridin-2-yl-piperazin-1-yl)-propyl]-thiazolidin-4-ne]
– | – | 84.7 | – | O=C1C(=Cc2cccc(Cl)c2)SC(c2cccc(F)c2)N1CCCN1CCN(c2ncccn2)CC1 (centres unmarked) [Compound 48, 5-(3-Chloro-benzylidene)-2-(3-fluoro-phenyl)-3-[3-(4-pyrimidin-2-yl-piperazin-1-yl)-propyl]-thiazolidin-4-one]
– | – | – | 54.0 | O=C1C(=Cc2cccc(Cl)c2)SC(c2cccc(F)c2)N1CCCN1CCN(C2CCCCC2)CC1 (centres unmarked) [Compound 49, 5-(3-Chloro-henzylidene)-3-[3-(4-cyclohexyl-piperazin-1-yl)-propyl]-2-(3-fluoro-phenyl)-thiazolidin-4-one]
– | – | 77.8 | – | O=C1C(=Cc2cccc(Cl)c2)SC(c2cccc(Cl)c2)N1CCCN1CCN(c2ccccn2)CC1 (centres unmarked) [Compound 50, 5-(3-Chloro-benzylidene)-2-(3-chloro-phenyl)-3-[3-(4-pyridin-2-yl-piperazin-1-yl)-propyl]-thiazolidin-4-one]
– | – | 84 | – | O=C1C(=Cc2cccc(Cl)c2)SC(c2cccc(Cl)c2)N1CCCN1CCN(c2ncccn2)CC1 (centres unmarked) [Compound 51, 5-(3-Chloro-benzylidene)-2-(3-chloro-phenyl)-3-[3-(4-pyrimidin-2-yl-piperazin-1-yl)-propyl]-thiazolidin-4-one]
– | – | 43.7 | – | O=C1C(=Cc2cccc(Cl)c2)SC(c2cccc(Cl)c2)N1CCCN1CCN(C2CCCCC2)CC1 (centres unmarked) [Compound 52, 5-(3-Chloro-benzylidene)-2-(3-chloro-phenyl)-3-[3-(4-cyclohexyl-piperazin-1-yl)-propyl]-thiazolidin-4-one]
